Test results taken from patent US11051515B2, “3-acyl-benzamides and their use as herbicides” (Bayer Aktiengesellschaft, priority 2017, dated 2021).

Tests used:
[1] = system: POLCO; assay: Pre-emergence action against POLCO; assay type: in vivo, Polygonum convolvulus; details: Dosage 320 g/ha, pre-emergence
Outline: (§1)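 Seeds sown in sandy loam in wood-fiber pots and covered with soil. Greenhouse growth; visual damage scored after 3 weeks versus untreated controls (100% = dead, 0% = like control).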

[2] = system: VERPE; assay: Pre-emergence action against VERPE; assay type: in vivo, Veronica persica; details: Dosage 320 g/ha, pre-emergence
Outline: as §1

[3] = system: PHBPU; assay: Post-emergence action against PHBPU; assay type: in vivo, Pharbitis purpurea; details: post-emergence, dosage 80 g/ha
Outline: (§2)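 Post-emergence foliar spray on greenhouse plants at the one-leaf stage, using wettable-powder or emulsion-concentrate formulations in water (600 to […], plus 0.2% wetting agent). Damage scored by eye roughly 3 weeks later against untreated plants: 0% = like control, 100% = dead.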

[4] = system: CYPES; assay: Post-emergence action against CYPES; assay type: in vivo, Cyperus esculentus; details: post-emergence, dosage 80 g/ha, visual assessment about 3 weeks after treatment vs untreated controls
Outline: as §2

[5] = system: ABUTH; assay: Pre-emergence action against ABUTH; assay type: in vivo, Abutilon theophrasti; details: pre-emergence, dosage 320 g/ha, scored visually after 3 weeks vs untreated controls
Outline: as §1

[6] = system: HORMU; assay: Pre-emergence action against HORMU; assay type: in vivo, Hordeum murinum; details: Dosage 320 g/ha
From the text: (§3) Seeds of monocotyledonous and dicotyledonous weed plants and crop plants are laid out in sandy loam soil in wood-fiber pots and covered with soil. The compounds of the invention, formulated in the form of wettable powders (WP) or as emulsion concentrates (EC), are then applied to the surface of the covering soil in the form of an aqueous suspension or emulsion at a water application rate equating to […], with addition of 0.2% wetting agent. After the treatment, the pots are placed in a greenhouse and kept under good growth conditions for the trial plants. The damage to the test plants is scored visually after a test period of 3 weeks by comparison with untreated controls (herbicidal activity in percent (%): 100% activity=the plants have died, 0% activity=like control plants).

[7] = system: VIOTR; assay: Post-emergence action against VIOTR; assay type: in vivo, Viola tricolor; details: post-emergence, dosage 80 g/ha
Outline: as §2

[8] = system: AMARE; assay: Pre-emergence action against AMARE; assay type: in vivo, Amaranthus retroflexus; details: pre-emergence, dosage 320 g/ha, scored visually after 3 weeks vs untreated controls
Outline: as §1

[9] = system: VIOTR; assay: Pre-emergence action against VIOTR; assay type: in vivo, Viola tricolor; details: Dosage 320 g/ha, pre-emergence
Outline: as §1

[10] = system: VERPE; assay: Post-emergence action against VERPE; assay type: in vivo, Veronica persica; details: dosage 80 g/ha
Outline: as §2

[11] = system: SETVI; assay: Pre-emergence action against SETVI; assay type: in vivo, Setaria viridis; details: pre-emergence, dosage 320 g/ha, scored visually after 3 weeks vs untreated controls
Outline: as §1

[12] = system: ECHCG; assay: Post-emergence action against ECHCG; assay type: in vivo, Echinochloa crus-galli; details: post-emergence, dosage 80 g/ha, visual assessment about 3 weeks after treatment vs untreated controls
Outline: as §2

[13] = system: ABUTH; assay: Post-emergence action against ABUTH; assay type: in vivo, Abutilon theophrasti; details: post-emergence, dosage 80 g/ha, visual assessment about 3 weeks after treatment vs untreated controls
Outline: as §2

[14] = system: POLCO; assay: Post-emergence action against POLCO; assay type: in vivo, Polygonum convolvulus; details: post-emergence, dosage 80 g/ha
Outline: as §2

[15] = system: AMARE; assay: Post-emergence action against AMARE; assay type: in vivo, Amaranthus retroflexus; details: post-emergence, dosage 80 g/ha, visual assessment about 3 weeks after treatment vs untreated controls
Outline: as §2

[16] = system: SETVI; assay: Post-emergence action against SETVI; assay type: in vivo, Setaria viridis; details: post-emergence, dosage 80 g/ha, visual assessment about 3 weeks after treatment vs untreated controls
Outline: as §2

[17] = system: MATIN; assay: Pre-emergence action against MATIN; assay type: in vivo, Matricaria inodora; details: Dosage 320 g/ha, pre-emergence
Outline: as §1

[18] = system: MATIN; assay: Post-emergence action against MATIN; assay type: in vivo, Matricaria inodora; details: post-emergence, dosage 80 g/ha, visual assessment about 3 weeks after treatment vs untreated controls
Outline: as §2

[19] = system: ALOMY; assay: Pre-emergence action against ALOMY; assay type: in vivo, Alopecurus myosuroides; details: dosage 320 g/ha; pre-emergence; scored visually after 3 weeks vs untreated controls; 100% = plants have died, 0% = like control plants
Outline: as §1

[20] = system: PHBPU; assay: Pre-emergence action against PHBPU; assay type: in vivo, Pharbitis purpurea; details: Dosage 320 g/ha, pre-emergence
Outline: as §1

[21] = system: AVEFA; assay: Pre-emergence action against AVEFA; assay type: in vivo, Avena fatua; details: dosage 320 g/ha, scored visually after 3 weeks vs untreated controls
Outline: as §1

[22] = system: STEME; assay: Pre-emergence action against STEME; assay type: in vivo, Stellaria media; details: Dosage 320 g/ha, pre-emergence
Outline: as §1

[23] = system: ECHCG; assay: Pre-emergence action against ECHCG; assay type: in vivo, Echinochloa crus-galli; details: pre-emergence, dosage 320 g/ha, scored visually after 3 weeks vs untreated controls
Outline: as §1

[24] = system: STEME; assay: Post-emergence action against STEME; assay type: in vivo, Stellaria media; details: post-emergence, dosage 80 g/ha
Outline: as §2

[25] = system: AVEFA; assay: Post-emergence action against AVEFA; assay type: in vivo, Avena fatua; details: post-emergence, dosage 80 g/ha, visual assessment about 3 weeks after treatment vs untreated controls
Outline: as §2

[26] = system: ALOMY; assay: Post-emergence action against ALOMY; assay type: in vivo, Alopecurus myosuroides; details: Dosage 80 g/ha, post-emergence
Outline: as §2

[27] = system: LOLRI; assay: Pre-emergence action against LOLRI; assay type: in vivo, Lolium rigidum; details: dosage 320 g/ha, scored visually after 3 weeks vs untreated controls
From the text: as §3

[28] = system: CYPES; assay: Pre-emergence action against CYPES; assay type: in vivo, Cyperus esculentus; details: pre-emergence, dosage 320 g/ha, scored visually after 3 weeks vs untreated controls
Outline: as §1

SMILES	Pre-emergence action against VERPE [2] [%]	Post-emergence action against PHBPU [3]	Pre-emergence action against ABUTH (herbicidal activity) [5] [%]	Pre-emergence action against HORMU [6] [%]	Post-emergence action against VIOTR [7]	Pre-emergence action against AMARE (herbicidal activity) [8] [%]	Pre-emergence action against VIOTR [9] [%]	Post-emergence action against VERPE [10]	SETVI (Table B8, pre-emergence herbicidal activity) [11] [%]	Post-emergence action against ECHCG (herbicidal action in percent) [12] [%]	Post-emergence action against ABUTH (herbicidal action in percent) [13] [%]	Post-emergence action against POLCO [14]	Pre-emergence action against MATIN [17] [%]	Post-emergence action against MATIN (herbicidal action in percent) [18] [%]	Pre-emergence action against ALOMY (herbicidal activity in percent) [19] [%]	Pre-emergence action against PHBPU [20] [%]	Pre-emergence action against AVEFA (herbicidal activity) [21] [%]	Pre-emergence action against STEME [22] [%]	Pre-emergence action against ECHCG (herbicidal activity) [23] [%]	Post-emergence action against STEME [24]	also measured
CCCn1nnnc1NC(=O)c1ccc(C(F)F)c(C(C)=O)c1SC [3-65]	100	90	100	100	100	100	100	80	100	90	100	80	100	90	80	100	100	100	100	100	Pre-emergence action against POLCO [1]: 100%; Post-emergence action against CYPES (herbicidal action in percent) [4]: 80%; Post-emergence action against AMARE (herbicidal action in percent) [15]: 90%; Post-emergence action against SETVI (herbicidal action in percent) [16]: 100%
CCn1nnnc1NC(=O)c1ccc(C(F)(F)F)c(C(=O)C(C)C)c1Cl [2-140]	100	90	100	–	100	100	100	80	100	100	100	80	100	90	90	100	80	100	100	100	Post-emergence action against CYPES (herbicidal action in percent) [4]: 80%; Post-emergence action against AVEFA (herbicidal action in percent) [25]: 80%; Post-emergence action against ALOMY [26]: 80%; Pre-emergence action against LOLRI (herbicidal activity) [27]: 90%
CCn1nnnc1NC(=O)c1ccc(C(F)F)c(C(C)=O)c1SC [2-65]	100	90	100	80	100	100	100	80	100	80	100	100	90	100	100	100	100	100	100	100	Pre-emergence action against POLCO [1]: 90%; Post-emergence action against AMARE (herbicidal action in percent) [15]: 100%; Post-emergence action against SETVI (herbicidal action in percent) [16]: 100%; Pre-emergence action against CYPES (herbicidal activity) [28]: 90%
CCCC(=O)c1c(C(F)(F)F)ccc(C(=O)Nc2nnnn2CC)c1Cl [2-139]	100	100	100	80	100	100	100	–	100	90	90	–	100	90	100	100	80	100	100	100	Post-emergence action against AMARE (herbicidal action in percent) [15]: 100%; Pre-emergence action against LOLRI (herbicidal activity) [27]: 100%; Pre-emergence action against CYPES (herbicidal activity) [28]: 100%
